pIC50: −log10 of the molar value.
How the values were obtained:
human A2B receptors = target: T1, human A2B receptors (Homo sapiens, UniProt P29275); assay: Functional human A2B receptor activity, recombinant HEK293 cells, cAMP (HTRF); format: cell-based; conditions: read-out: A2B (Category)
T1 construct: expressed in transfected cells; host or cells: HEK293
T1 sequence (P29275 1-332): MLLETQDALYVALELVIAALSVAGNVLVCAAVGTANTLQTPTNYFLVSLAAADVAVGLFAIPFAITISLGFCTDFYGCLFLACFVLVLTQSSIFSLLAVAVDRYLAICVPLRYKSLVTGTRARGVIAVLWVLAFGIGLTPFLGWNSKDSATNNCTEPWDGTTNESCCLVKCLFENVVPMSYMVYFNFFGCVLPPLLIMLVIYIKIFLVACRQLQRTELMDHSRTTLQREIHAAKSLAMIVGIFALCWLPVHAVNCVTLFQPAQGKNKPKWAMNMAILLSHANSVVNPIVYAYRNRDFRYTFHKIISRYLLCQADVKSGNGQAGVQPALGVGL
How it was run: (§1)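 cAMP accumulation, determined by HTRF after a 15 min incubation, served as the functional measure of receptor activity.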

human A2A receptors = target: T2, human A2A receptors (Homo sapiens, UniProt P29274); assay: Functional human A2A receptor activity, recombinant HEK293 cells, cAMP (HTRF); format: cell-based; conditions: read-out: A2A (Category)
T2 construct: expressed in transfected cells; host or cells: HEK293
T2 sequence (P29274 whole entry): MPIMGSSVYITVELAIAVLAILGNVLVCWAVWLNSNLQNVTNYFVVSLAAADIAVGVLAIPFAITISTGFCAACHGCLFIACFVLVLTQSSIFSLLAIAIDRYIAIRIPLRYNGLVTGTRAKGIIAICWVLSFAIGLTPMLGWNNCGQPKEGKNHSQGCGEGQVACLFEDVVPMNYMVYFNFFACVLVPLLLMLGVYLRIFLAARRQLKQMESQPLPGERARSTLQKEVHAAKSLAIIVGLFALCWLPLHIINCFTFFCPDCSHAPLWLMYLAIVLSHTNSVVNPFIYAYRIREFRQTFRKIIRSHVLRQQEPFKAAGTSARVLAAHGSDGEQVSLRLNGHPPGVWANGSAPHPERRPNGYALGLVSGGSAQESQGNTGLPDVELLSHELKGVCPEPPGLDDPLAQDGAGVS
How it was run: as §1

| pIC50 (human A2B receptors) | pIC50 (human A2A receptors) | SMILES |
| --- | --- | --- |
| > 6.00 | > 7.00 | CC1(O)CCN(C(=O)c2cc3c(cn2)c(-c2cnn4ccccc24)nn3CC(F)(F)F)CC1 [Compound 117, (4-hydroxy-4-methyl-1-piperidyl)-[3-pyrazolo[1,5-a]pyridin-3-yl-1-(2,2,2-trifluoroethyl)pyrazolo[4,3-c]pyridin-6-yl]methanone] |
| > 7.00 | > 7.00 | O=C(c1cc2c(cn1)c(-c1coc3ccc(F)cc13)nn2CC(F)(F)F)N1CCOCC(O)C1 (centres unmarked) [Compound 118, [3-(5-fluorobenzofuran-3-yl)-1-(2,2,2-trifluoroethyl)pyrazolo[4,3-c]pyridin-6-yl]-(6-hydroxy-1,4-oxazepan-4-yl)methanone] |
| > 6.00 | > 7.00 | O=C(c1cc2c(cn1)c(-c1cnn3ccccc13)nn2CC(F)(F)F)N1CCOCC(O)C1 (centres unmarked) [Compound 119, (6-hydroxy-1,4-oxazepan-4-yl)-[3-pyrazolo[1,5-a]pyridin-3-yl-1-(2,2,2-trifluoroethyl)pyrazolo[4,3-c]pyridin-6-yl]methanone] |
| > 7.00 | > 7.00 | [2H]C1([2H])COCCN(C(=O)c2cc3c(cn2)c(-c2coc4ccc(F)cc24)nn3CC(F)(F)F)C1 [Compound 120, [3-(5-fluorobenzofuran-3-yl)-1-(2,2,2-trifluoroethyl)pyrazolo[4,3-c]pyridin-6-yl]-(6,6-dideuterio-1,4-oxazepan-4-yl)methanone] |
| > 7.00 | > 7.00 | [2H]C1([2H])COCCN(C(=O)c2cc3c(cn2)c(-c2cnn4ccccc24)nn3CC(F)(F)F)C1 [Compound 121, (6,6-dideuterio-1,4-oxazepan-4-yl)-[3-pyrazolo[1,5-a]pyridin-3-yl-1-(2,2,2-trifluoroethyl)pyrazolo[4,3-c]pyridin-6-yl]methanone] |
| > 7.00 | > 7.00 | O=C(c1cc2c(cn1)c(-c1coc3ccc(F)cc13)nn2CC(F)(F)F)N1CCCC(O)CC1 (centres unmarked) [Compound 122, [3-(5-fluorobenzofuran-3-yl)-1-(2,2,2-trifluoroethyl)pyrazolo[4,3-c]pyridin-6-yl]-(4-hydroxyazepan-1-yl)methanone] |
| > 7.00 | > 7.00 | O=C(c1cc2c(cn1)c(-c1c[nH]c3ccc(F)cc13)nn2CC(F)(F)F)N1CCCOCC1 [Compound 123, [3-(5-fluoro-1H-indol-3-yl)-1-(2,2,2-trifluoroethyl)pyrazolo[4,3-c]pyridin-6-yl]-(1,4-oxazepan-4-yl)methanone] |
| > 6.00 | > 7.00 | Cc1ccc2occ(-c3nn(CC(F)(F)F)c4cc(C(=O)N5CCCOCC5)ncc34)c2c1 [Compound 125, [3-(5-methylbenzofuran-3-yl)-1-(2,2,2-trifluoroethyl)pyrazolo[4,3-c]pyridin-6-yl]-(1,4-oxazepan-4-yl)methanone] |
| > 6.00 | > 7.00 | Cc1oc2ccccc2c1-c1nn(CC(F)(F)F)c2cc(C(=O)N3CCCOCC3)ncc12 [Compound 126, [3-(2-methylbenzofuran-3-yl)-1-(2,2,2-trifluoroethyl)pyrazolo[4,3-c]pyridin-6-yl]-(1,4-oxazepan-4-yl)methanone] |
| > 7.00 | > 7.00 | O=C(c1cc2c(cn1)c(-c1coc3ccc(F)cc13)nn2CC(F)(F)F)N1CC2CCC(C1)O2 [Compound 127, [3-(5-fluorobenzofuran-3-yl)-1-(2,2,2-trifluoroethyl)pyrazolo[4,3-c]pyridin-6-yl]-(8-oxa-3-azabicyclo[3.2.1]octan-3-yl)methanone] |
| > 6.00 | > 7.00 | O=C(c1cc2c(cn1)c(-c1cnc3ccc(F)cn13)nn2CC(F)(F)F)N1CCC(O)CC1 [Compound 131, [3-(6-Fluoro-imidazo[1,2-a]pyridin-3-yl)-1-(2,2,2-trifluoro-ethyl)-1H-pyrazolo[4,3-c]pyridin-6-yl]-(4-hydroxy-piperidin-1-yl)-methanone] |
| > 7.00 | > 7.00 | O=C(c1cc2c(cn1)c(-c1cnc3c(F)cc(F)cn13)nn2CC(F)(F)F)N1CCC(O)CC1 [Compound 132, [3-(6,8-Difluoro-imidazo[1,2-a]pyridin-3-yl)-1-(2,2,2-trifluoro-ethyl)-1H-pyrazolo[4,3-c]pyridin-6-yl]-(4-hydroxy-piperidin-1-yl)-methanone] |
| > 6.00 | > 7.00 | CC1(O)CCN(C(=O)c2cc3c(cn2)c(-c2cnc4c(F)cc(F)cn24)nn3CC(F)(F)F)CC1 [Compound 133, [3-(6,8-Difluoro-imidazo[1,2-a]pyridin-3-yl)-1-(2,2,2-trifluoro-ethyl)-1H-pyrazolo[4,3-c]pyridin-6-yl]-(4-hydroxy-4-methyl-piperidin-1-yl)-methanone] |
| > 6.00 | > 7.00 | O=C(c1cc2c(cn1)c(-c1cnc3c(F)cc(F)cn13)nn2CC(F)(F)F)N1CC2CC1CO2 (centres unmarked) [Compound 135, [3-(6,8-Difluoro-imidazo[1,2-a]pyridin-3-yl)-1-(2,2,2-trifluoro-ethyl)-1H-pyrazolo[4,3-c]pyridin-6-yl]-(2-oxa-5-aza-bicyclo[2.2.1]hept-5-yl)-methanone] |
| > 7.00 | > 7.00 | CC1CC(O)CCN1C(=O)c1cc2c(cn1)c(-c1cnc3c(F)cc(F)cn13)nn2CC(F)(F)F (centres unmarked) [Compound 138, [3-(6,8-Difluoro-imidazo[1,2-a]pyridin-3-yl)-1-(2,2,2-trifluoro-ethyl)-1H-pyrazolo[4,3-c]pyridin-6-yl]-(4-hydroxy-2-methyl-piperidin-1-yl)-methanone] |
| > 7.00 | > 7.00 | O=C(c1cc2c(cn1)c(-c1cnc3c(F)cc(F)cn13)nn2CC(F)(F)F)N1CC2CCC(C2)C1 [Compound 139, (3-Aza-bicyclo[3.2.1]oct-3-yl)-[3-(6,8-difluoro-imidazo[1,2-a]pyridin-3-yl)-1-(2,2,2-trifluoro-ethyl)-1H-pyrazolo[4,3-c]pyridin-6-yl]-methanone] |
| > 6.00 | > 7.00 | CC(C)C1CC(O)CCN1C(=O)c1cc2c(cn1)c(-c1cnc3c(F)cc(F)cn13)nn2CC(F)(F)F (centres unmarked) [Compound 141, [3-(6,8-Difluoro-imidazo[1,2-a]pyridin-3-yl)-1-(2,2,2-trifluoro-ethyl)-1H-pyrazolo[4,3-c]pyridin-6-yl]-(4-hydroxy-2-isopropyl-piperidin-1-yl)-methanone] |
| > 6.00 | > 7.00 | CC1(C)CC(O)CCN1C(=O)c1cc2c(cn1)c(-c1cnc3c(F)cc(F)cn13)nn2CC(F)(F)F (centres unmarked) [Compound 142, [3-(6,8-Difluoro-imidazo[1,2-a]pyridin-3-yl)-1-(2,2,2-trifluoro-ethyl)-1H-pyrazolo[4,3-c]pyridin-6-yl]-(4-hydroxy-2,2-dimethyl-piperidin-1-yl)-methanone] |
| > 6.00 | > 7.00 | CC(C)CC1CN(C(=O)c2cc3c(cn2)c(-c2cnc4c(F)cc(F)cn24)nn3CC(F)(F)F)CCC1O (centres unmarked) [Compound 143, [3-(6,8-Difluoro-imidazo[1,2-a]pyridin-3-yl)-1-(2,2,2-trifluoro-ethyl)-1H-pyrazolo[4,3-c]pyridin-6-yl]-(4-hydroxy-3-isobutyl-piperidin-1-yl)-methanone] |
| > 6.00 | > 7.00 | O=C(c1cc2c(cn1)c(-c1cnc3c(F)cc(F)cn13)nn2CC(F)(F)F)N1CCC(F)CC1 [Compound 144, [3-(6,8-Difluoro-imidazo[1,2-a]pyridin-3-yl)-1-(2,2,2-trifluoro-ethyl)-1H-pyrazolo[4,3-c]pyridin-6-yl]-(4-fluoro-piperidin-1-yl)-methanone] |
| > 6.00 | > 7.00 | O=C(c1cc2c(cn1)c(-c1cnc3c(F)cc(F)cn13)nn2CC(F)(F)F)N1CCC(F)(F)CC1 [Compound 146, [3-(6,8-Difluoro-imidazo[1,2-a]pyridin-3-yl)-1-(2,2,2-trifluoro-ethyl)-1H-pyrazolo[4,3-c]pyridin-6-yl]-(4,4-difluoro-piperidin-1-yl)-methanone] |
| > 6.00 | > 7.00 | O=C(c1cc2c(cn1)c(-c1cnc3c(F)cc(F)cn13)nn2CC(F)(F)F)N1CCC(O)(c2cccnc2)CC1 [Compound 147, [3-(6,8-Difluoro-imidazo[1,2-a]pyridin-3-yl)-1-(2,2,2-trifluoro-ethyl)-1H-pyrazolo[4,3-c]pyridin-6-yl]-(4′-hydroxy-3′,4′,5′,6′-tetrahydro-2′H-[3,4′]bipyridinyl-1′-yl)-methanone] |
| > 6.00 | > 6.00 | O=C(c1cc2c(cn1)c(-c1cnc3c(F)cc(F)cn13)nn2CC(F)(F)F)N1CCC(O)(C(F)(F)F)CC1 [Compound 148, [3-(6,8-Difluoro-imidazo[1,2-a]pyridin-3-yl)-1-(2,2,2-trifluoro-ethyl)-1H-pyrazolo[4,3-c]pyridin-6-yl]-(4-hydroxy-4-trifluoromethyl-piperidin-1-yl)-methanone] |
| > 6.00 | > 7.00 | COCC1CCCN1C(=O)c1cc2c(cn1)c(-c1cnc3c(F)cc(F)cn13)nn2CC(F)(F)F (centres unmarked) [Compound 149, [3-(6,8-Difluoro-imidazo[1,2-a]pyridin-3-yl)-1-(2,2,2-trifluoro-ethyl)-1H-pyrazolo[4,3-c]pyridin-6-yl]-(2-methoxymethyl-pyrrolidin-1-yl)-methanone] |
| > 6.00 | > 7.00 | O=C(c1cc2c(cn1)c(-c1cnc3c(F)cc(F)cn13)nn2CC(F)(F)F)N1CCCC(O)C1 (centres unmarked) [Compound 151, [3-(6,8-Difluoro-imidazo[1,2-a]pyridin-3-yl)-1-(2,2,2-trifluoro-ethyl)-1H-pyrazolo[4,3-c]pyridin-6-yl]-(3-hydroxy-piperidin-1-yl)-methanone] |

— patent publication US20210380606A1, “5-AZAINDAZOLE DERIVATIVES AS ADENOSINE RECEPTOR ANTAGONISTS” (Merck Patent GmbH, priority 2018, published 2021)
